We go through 22 compounds from patent US10160747B2, “Compounds and methods for kinase modulation, and indications therefor” (Plexxikon Inc., priority 2016, dated 2018).

The IC50 is the midpoint of a concentration-inhibition curve. Low readings indicate higher potency, high ones lower potency. Broadly, the GI50 is the concentration that inhibits growth by half.

Assay [1] deals with MOLM-14 D835Y (endogenous FLT3 ITD and transfected FLT3 D835Y). Kind of assay: MOLM-14 D835Y cell proliferation assay (CellTiter-Glo). Format: cell-based. To be noted: Homo sapiens, MOLM-14, 72 h; 3 d growth, GMean. A digest of the protocol:
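MOLM-14 derivatives carrying D835Y or F691L, selected under escalating AC220, were seeded at 1×10^4 cells/well and exposed to an 8-point 1:3 compound series (1 to 0.00046 μM, 0.2% DMSO final) for three days at 37° C., 5% CO2. CellTiter-Glo luminescence (ATP content) versus concentration gave IC50.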
Background: Cellular ATP, detected with luciferase, serves as a proxy for viable cell number.

Assay [2] addresses T1, BA/F3-FLT3-ITD + D835Y (Homo sapiens, UniProt P36888, D835Y, cells depend on it, form not given).
T1 sequence (P36888 with tags, fused parts or gaps INS600HVDFREYEYD/D835Y): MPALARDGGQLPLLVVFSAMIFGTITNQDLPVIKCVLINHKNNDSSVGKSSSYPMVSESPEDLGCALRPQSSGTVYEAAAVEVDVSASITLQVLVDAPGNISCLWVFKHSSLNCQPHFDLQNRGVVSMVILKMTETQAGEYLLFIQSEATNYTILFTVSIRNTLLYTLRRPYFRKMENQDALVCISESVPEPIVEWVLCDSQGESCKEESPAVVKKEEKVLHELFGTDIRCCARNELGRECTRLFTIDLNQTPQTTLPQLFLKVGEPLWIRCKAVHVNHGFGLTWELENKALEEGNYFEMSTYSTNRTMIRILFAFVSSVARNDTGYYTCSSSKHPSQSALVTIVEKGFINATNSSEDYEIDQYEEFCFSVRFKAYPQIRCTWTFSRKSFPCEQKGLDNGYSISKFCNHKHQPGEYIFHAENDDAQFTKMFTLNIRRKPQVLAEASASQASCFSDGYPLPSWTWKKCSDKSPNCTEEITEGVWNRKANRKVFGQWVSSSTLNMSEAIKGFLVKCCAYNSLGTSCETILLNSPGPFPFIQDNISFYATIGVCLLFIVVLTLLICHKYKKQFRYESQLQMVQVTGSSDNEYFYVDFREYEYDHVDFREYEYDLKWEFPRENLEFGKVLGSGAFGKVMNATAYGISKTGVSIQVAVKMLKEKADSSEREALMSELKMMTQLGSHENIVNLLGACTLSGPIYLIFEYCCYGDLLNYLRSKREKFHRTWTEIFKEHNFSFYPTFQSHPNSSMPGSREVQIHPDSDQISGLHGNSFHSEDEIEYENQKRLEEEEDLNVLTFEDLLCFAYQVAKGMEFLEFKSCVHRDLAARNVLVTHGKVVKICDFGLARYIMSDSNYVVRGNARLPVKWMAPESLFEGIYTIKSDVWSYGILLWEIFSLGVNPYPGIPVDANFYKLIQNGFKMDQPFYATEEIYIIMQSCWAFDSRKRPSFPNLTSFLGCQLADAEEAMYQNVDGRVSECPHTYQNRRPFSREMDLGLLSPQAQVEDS
Kind of assay: Engineered BA/F3 cell growth assay, FLT3 ITD/D835Y. The note with it: 3 d growth. It counts as cell-based, murine. A digest of the protocol: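 IC50 derived from CellTiter-Glo ATP luminescence after 3 days at 37 °C, 5% CO2, over eight 1:3 dilutions from 1 μM (0.2% DMSO final). Cells: IL-3-independent murine Ba/F3 expressing full-length FLT3 ITD/D835Y, 1×10^4 per well.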

Regarding `Cn1cnc(Nc2ncc(-c3ccc(CC(=O)Nc4cnc(Cl)c(C(F)(F)F)c4)c(F)c3)cn2)c1` [Compound P-0100, N-[6-chloro-5-(trifluoromethyl)-3-pyridyl]-2-[2-fluoro-4-[2-[(1-methylimidazol-4-yl)amino]pyrimidin-5-yl]phenyl]acetamide], in assay [1], the half-inhibitory concentration (IC50) lay within 0.0001 to 10 µM. In addition, the GI50 in assay [2] is 0.0001 to 10 µM.
Consider `Cc1ncc(NC(=O)Cc2ccc(-c3cnc(Nc4cn(C)cn4)nc3)cc2F)cc1C(F)(F)F` [Compound P-0099, 2-[2-fluoro-4-[2-[(1-methylimidazol-4-yl)amino]pyrimidin-5-yl]phenyl]-N-[6-methyl-5-(trifluoromethyl)-3-pyridyl]acetamide], for which the IC50 in assay [1] lay in the range of 0.0001 to 10 µM. In addition, in assay [2], the GI50 is 0.0001 to 10 µM.
Compound `Cn1cc(Nc2ncc(-c3ccc(CC(=O)Nc4ccnc(C(F)(F)F)c4)cc3)cn2)cn1` [Compound P-0134, 2-[4-[2-[(1-methylpyrazol-4-yl)amino]pyrimidin-5-yl]phenyl]-N-[2-(trifluoromethyl)-4-pyridyl]acetamide] had an IC50 in assay [1] of 0.0001 to 10 µM. Also, the GI50 in assay [2] is 0.0001 to 10 µM.
In assay [1], `COc1cc(NC(=O)Cc2ccc(-c3cnc(Nc4cnn(C)c4)nc3)cc2)ccn1` [Compound P-0153, N-(2-methoxy-4-pyridyl)-2-[4-[2-[(1-methylpyrazol-4-yl)amino]pyrimidin-5-yl]phenyl]acetamide] had an IC50 of 0.0001 to 10 µM. In addition, the GI50 in assay [2] was in the range of 0.0001 to 10 µM.
The compound `Cn1cc(Nc2ncc(-c3ccc(CC(=O)Nc4ccc(C(C)(C)C#N)nc4)c(F)c3)cn2)cn1` [Compound P-0108, N-[6-(1-cyano-1-methyl-ethyl)-3-pyridyl]-2-[2-fluoro-4-[2-[(1-methylpyrazol-4-yl)amino]pyrimidin-5-yl]phenyl]acetamide] displayed an IC50 in assay [1] of 0.0001 to 10 µM. For the same compound, the 50% growth inhibitory concentration (GI50) in assay [2] lay in the range of 0.0001 to 10 µM.
Regarding `Cn1cc(Nc2ncc(-c3ccc(CC(=O)Nc4cc(Cl)c(C5CC5)cn4)c(F)c3)cn2)cn1` [Compound P-0107, N-(4-chloro-5-cyclopropyl-2-pyridyl)-2-[2-fluoro-4-[2-[(1-methylpyrazol-4-yl)amino]pyrimidin-5-yl]phenyl]acetamide], the half-inhibitory concentration (IC50) in assay [1] fell in the range of 0.0001 to 10 µM. For the same compound, the GI50 in assay [2] is 0.0001 to 10 µM.
In assay [1], `Cn1cc(Nc2ncc(-c3ccc(CC(=O)Nc4ccc(C(F)(F)F)nc4)cc3)cn2)cn1` [Compound P-0095, 2-[4-[2-[(1-methylpyrazol-4-yl)amino]pyrimidin-5-yl]phenyl]-N-[6-(trifluoromethyl)-3-pyridyl]acetamide] yielded an IC50 of 0.0001 to 10 µM. The GI50 in assay [2] is 0.0001 to 10 µM.
Regarding `Cn1cc(Nc2ncc(-c3ccc(CC(=O)Nc4cc(C(F)(F)F)ncn4)cc3)cn2)cn1` [Compound P-0135, 2-[4-[2-[(1-methylpyrazol-4-yl)amino]pyrimidin-5-yl]phenyl]-N-[6-(trifluoromethyl)pyrimidin-4-yl]acetamide], the IC50 in assay [1] was in the range of 0.0001 to 10 µM. For the same compound, the GI50 in assay [2] is 0.0001 to 10 µM.
In assay [1], `Cc1ncc(NC(=O)Cc2ccc(-c3cnc(Nc4cn(C)cn4)nc3)cc2)cc1C(F)(F)F` [Compound P-0150, 2-[4-[2-[(1-methylimidazol-4-yl)amino]pyrimidin-5-yl]phenyl]-N-[6-methyl-5-(trifluoromethyl)-3-pyridyl]acetamide] returned an IC50 of 0.0001 to 10 µM. In addition, the GI50 in assay [2] was in the range of 0.0001 to 10 µM.
`Cn1cc(Nc2ncc(-c3ccc(CC(=O)Nc4cccc(C(F)(F)F)c4)cc3)cn2)cn1` [Compound P-0141, 2-[4-[2-[(1-methylpyrazol-4-yl)amino]pyrimidin-5-yl]phenyl]-N-[3-(trifluoromethyl)phenyl]acetamide] returned an IC50 in assay [1] of 0.0001 to 10 µM. Further, the GI50 in assay [2] was 0.0001 to 10 µM.
For `O=C(Cc1ccc(-c2cnc3[nH]c(-c4ccccc4)cc3c2)cn1)Nc1ccnc(C(F)(F)F)c1` [Compound P-0005, 2-[5-(2-phenyl-1H-pyrrolo[2,3-b]pyridin-5-yl)-2-pyridyl]-N-[2-(trifluoromethyl)-4-pyridyl]acetamide], the IC50 in assay [1] was in the range of 0.0001 to 10 µM. The GI50 in assay [2] was 0.0001 to 10 µM.
In assay [1], `Cn1cc(Nc2ncc(-c3ccc(CC(=O)NCc4cccnc4)cc3)cn2)cn1` [Compound P-0132, 2-[4-[2-[(1-methylpyrazol-4-yl)amino]pyrimidin-5-yl]phenyl]-N-(3-pyridylmethyl)acetamide] yielded an IC50 of 0.0001 to 10 µM. Further, in assay [2], the GI50 is 0.0001 to 10 µM.
Turning to `Cn1cc(Nc2ncc(-c3ccc(CC(=O)Nc4cc(C(F)(F)F)ccn4)cc3)cn2)cn1` [Compound P-0139, 2-[4-[2-[(1-methylpyrazol-4-yl)amino]pyrimidin-5-yl]phenyl]-N-[4-(trifluoromethyl)-2-pyridyl]acetamide], the IC50 in assay [1] was 0.0001 to 10 µM. Besides, in assay [2], the GI50 is 0.0001 to 10 µM.
With `Cn1cc(Nc2ncc(-c3ccc(CC(=O)Nc4cc(Cl)c(C5CC5)cn4)cc3)cn2)cn1` [Compound P-0164, N-(4-chloro-5-cyclopropyl-2-pyridyl)-2-[4-[2-[(1-methylpyrazol-4-yl)amino]pyrimidin-5-yl]phenyl]acetamide], the IC50 in assay [1] fell in the range of 0.0001 to 10 µM. For the same compound, in assay [2], the concentration for 50% growth inhibition (GI50) was in the range of 0.0001 to 10 µM.
For `COc1ncc(NC(=O)Cc2ccc(-c3cnc(Nc4cn(C)cn4)nc3)cc2)cc1C(F)(F)F` [Compound P-0149, N-[6-methoxy-5-(trifluoromethyl)-3-pyridyl]-2-[4-[2-[(1-methylimidazol-4-yl)amino]pyrimidin-5-yl]phenyl]acetamide], in assay [1], the IC50 fell in the range of 0.0001 to 10 µM. For the same compound, the GI50 in assay [2] is 0.0001 to 10 µM.
Consider `O=C(Cc1ccc(-c2cnc3[nH]c(-c4ccccc4)cc3c2)cc1F)Nc1ccnc(C(F)(F)F)c1` [Compound P-0004, 2-[2-fluoro-4-(2-phenyl-1H-pyrrolo[2,3-b]pyridin-5-yl)phenyl]-N-[2-(trifluoromethyl)-4-pyridyl]acetamide], for which the IC50 in assay [1] was in the range of 0.0001 to 10 µM. Besides, the GI50 in assay [2] was in the range of 0.0001 to 10 µM.
Take `COCCn1cc(Nc2ncc(-c3ccc(CC(=O)Nc4cncc(C(F)(F)F)c4)cc3)cn2)cn1` [Compound P-0178, 2-[4-[2-[[1-(2-methoxyethyl)pyrazol-4-yl]amino]pyrimidin-5-yl]phenyl]-N-[5-(trifluoromethyl)-3-pyridyl]acetamide]: in assay [1], the IC50 was in the range of 0.0001 to 10 µM. The GI50 in assay [2] was 0.0001 to 10 µM.
Take `Cc1cc(-c2cnc3[nH]c(-c4ccccc4)cc3c2)ccc1CC(=O)Nc1cccc(C(F)(F)F)c1` [Compound P-0001, 2-[2-methyl-4-(2-phenyl-1H-pyrrolo[2,3-b]pyridin-5-yl)phenyl]-N-[3-(trifluoromethyl)phenyl]acetamide]: in assay [1], the IC50 is 0.0001 to 10 µM. In addition, in assay [2], the GI50 fell in the range of 0.0001 to 10 µM.
In assay [1], `Cn1cc(Nc2ncc(-c3ccc(CC(=O)NCc4cncc(C(F)(F)F)c4)cc3)cn2)cn1` [Compound P-0161, 2-[4-[2-[(1-methylpyrazol-4-yl)amino]pyrimidin-5-yl]phenyl]-N-[[5-(trifluoromethyl)-3-pyridyl]methyl]acetamide] returned an IC50 of 0.0001 to 10 µM. For the same compound, in assay [2], the GI50 lay within 0.0001 to 10 µM.
For the compound `CC(C)c1cc(NC(=O)Cc2ccc(-c3cnc(Nc4cnn(C)c4)nc3)cc2F)ccn1` [Compound P-0094, 2-[2-fluoro-4-[2-[(1-methylpyrazol-4-yl)amino]pyrimidin-5-yl]phenyl]-N-(2-isopropyl-4-pyridyl)acetamide], the 50% inhibitory concentration (IC50) in assay [1] lay within 0.0001 to 10 µM. Besides, the 50% growth inhibitory concentration (GI50) in assay [2] was 0.0001 to 10 µM.
As to `O=C(Cc1ccc(-c2cnc3[nH]c(-c4ccc(N5CCOCC5)nc4)cc3c2)c(F)c1)Nc1cc(C(F)(F)F)ccn1` [Compound P-0192, 2-[3-fluoro-4-[2-(6-morpholino-3-pyridyl)-1H-pyrrolo[2,3-b]pyridin-5-yl]phenyl]-N-[4-(trifluoromethyl)-2-pyridyl]acetamide], in assay [1], the IC50 lay in the range of 0.0001 to 10 µM. Further, the GI50 in assay [2] lay in the range of 0.0001 to 10 µM.
For `COc1nn(C[C@H](C)O)cc1Nc1ncc(-c2ccc(CC(=O)Nc3cnc(C)c(C(F)(F)F)c3)cc2)cn1` [Compound P-0180, 2-[4-[2-[[1-[(2S)-2-hydroxypropyl]-3-methoxy-pyrazol-4-yl]amino]pyrimidin-5-yl]phenyl]-N-[6-methyl-5-(trifluoromethyl)-3-pyridyl]acetamide], the IC50 in assay [1] was 0.0001 to 10 µM. In assay [2], the GI50 lay in the range of 0.0001 to 10 µM.
